In brackets after ≈: the same amount, converted by molar mass. Where two headings read alike, the source gives them in different places.
Key:
in vitro [1] = assay type: cell-based; conditions: human; BEL-7402 cells; read-out: cytotoxic activity IC50
From the text: (§2) HeLa (human epithelial carcinoma cell line), HCT-116 (human colon cancer cell line), MCF-7 (human breast adenocarcinoma cell line), A549 (human lung adenocarcinoma cell line), SH-SY5Y (human neuroblastoma cell line), MDA-MB-231 (human breast cancer cell line), HO8910 (human ovarian carcinoma cell line), and MGC-803 (human stomach carcinoma cell line) were ordered from Shanghai Institute of Biochemistry and Cell Biology, Chinese Academy of Sciences (Shanghai, China). K562 (human leukaemia cell line), BEL-7402 (human hepatic carcinoma cell line), L-02 (human normal hepatic cell line), GES-1 (human gastric epithelial cell line), U87 (human primary glioblastoma cell line), ASPC-1 (human pancreatic cancer cell line), PC-3 (human prostate carcinoma cell line), and NCI-H446 (human small cell lung cancer cell line) were ordered from the American Type Culture Collection (ATCC, Gaithersburg, MD, USA).

in vitro [2] = assay type: cell-based; conditions: human; Hela cells; read-out: cytotoxic activity IC50
From the text: as §2

in vitro [3] = assay type: cell-based; conditions: human; PC-3 cells; read-out: cytotoxic activity IC50
in vitro [4] = assay type: cell-based; conditions: human; MDA-MB-231 cells; read-out: cytotoxic activity IC50
From the text: as §2

in vitro [5] = assay type: cell-based; conditions: human; ASPC-1 cells; read-out: cytotoxic activity IC50
in vitro [6] = assay type: cell-based; conditions: human; A549 cells; read-out: cytotoxic activity IC50
From the text: as §2

MRCNS = tested on: MRCNS
Method: (§1) The antimicrobial activities of 1–6 against Bacillus cereus, Proteus species, Mycobacterium phlei, Bacillus subtilis, Vibrio parahemolyticus, Edwardsiella tarda, MRCNS, and MRSA were evaluated as previously reported by using the agar dilution method. […] All strains were donated by the Qingdao municipal hospital.

MRSA = tested on: MRSA
Method: as §1

in vitro [7] = assay type: cell-based; conditions: human; HO8910 cells; read-out: cytotoxic activity IC50
From the text: as §2

in vitro [8] = assay type: cell-based; conditions: human; MCF-7 cells; read-out: cytotoxic activity IC50
From the text: as §2

in vitro [9] = assay type: cell-based; conditions: human; L-02 cells; read-out: cytotoxic activity IC50
From the text: as §2

in vitro [10] = assay type: cell-based; conditions: human; HCT-116 cells; read-out: cytotoxic activity IC50
From the text: as §2

in vitro [11] = assay type: cell-based; conditions: human; SH-SY5Y cells; read-out: cytotoxic activity IC50
in vitro [12] = assay type: cell-based; conditions: human; NCI-H446 cells; read-out: cytotoxic activity IC50
From the text: as §2

in vitro [13] = conditions: human, GES-1 cells (gastric epithelial cell line)
Proteus species = assay: organism not typed
Method: as §1

in vitro [14] = assay type: cell-based; conditions: human; K562 cells; read-out: cytotoxic activity IC50
From the text: as §2

Vibrio parahemolyticus = assay: Antimicrobial activity (MIC), agar dilution method; assay type: cell-based; conditions: performed in triplicates
Method: as §1

Bacillus cereus = assay: microbe, parasite or virus in culture
Method: as §1

Bacillus subtilis = assay: microbe, parasite or virus in culture
Method: as §1

Edwardsiella tarda = assay: microbe, parasite or virus in culture
Method: as §1

Mycobacterium phlei = assay: microbe, parasite or virus in culture
Method: as §1

in vitro [15] = assay type: cell-based; conditions: human; MGC-803 cells; read-out: cytotoxic activity IC50
From the text: as §2

in vitro [16] = assay type: cell-based; conditions: human; U87 cells; read-out: cytotoxic activity IC50
[17] = dissolved in solvent mixture MeOH-H2O and exposed to air for two weeks; LC-MS
From the text: It is well-known that some artificial compounds are formed from natural compounds due to oxidation when exposed to air.

| Structure (SMILES) | IC50 (in vitro [1]) | IC50 (in vitro [2]) | IC50 (in vitro [3]) | IC50 (in vitro [4]) | IC50 (in vitro [5]) | IC50 (in vitro [6]) | MIC, MRCNS (MRCNS) | MIC, MRSA (MRSA) | IC50 (in vitro [7]) | IC50 (in vitro [8]) | IC50 (in vitro [9]) | IC50 (in vitro [10]) | IC50 (in vitro [11]) | IC50 (in vitro [12]) | IC50 (in vitro [13]) | MIC, P. species (Proteus species) | IC50 (in vitro [14]) | MIC, V. parahemolyticus (Vibrio parahemolyticus) | MIC, B. cereus (Bacillus cereus) | MIC, B. subtilis (Bacillus subtilis) | other results |
| --- | --- | --- | --- | --- | --- | --- | --- | --- | --- | --- | --- | --- | --- | --- | --- | --- | --- | --- | --- | --- | --- |
| CC(C)[C@H]1C(=O)N(C)[C@@H](C)C(=O)NCCC[C@H](NC(=O)/C=C/C=C/C=O)C(=O)N1C [Compound 5, sclerotiotide F] | > 30 µM | > 30 µM | > 30 µM | > 30 µM | > 30 µM | > 30 µM | >50.0 µM | >50.0 µM | > 30 µM | > 30 µM | > 30 µM | > 30 µM | > 30 µM | > 30 µM | > 30 µM | 25.0 µM (≈ 10.5 µg/mL) | > 30 µM | 25.0 µM (≈ 10.5 µg/mL) | 25.0 µM (≈ 10.5 µg/mL) | >50.0 µM | MIC, E. tarda (Edwardsiella tarda): 25.0 µM (≈ 10.5 µg/mL); MIC, M. phlei (Mycobacterium phlei): >50.0 µM; IC50 (in vitro [15]): > 30 µM; IC50 (in vitro [16]): > 30 µM |
| C/C=C/C=C/C=C/C(=O)N[C@H]1CCCNC(=O)[C@H](C)N(C)C(=O)[C@H](C(C)C)N(C)C1=O [Compound 6, sclerotiotide B] | > 30 µM | > 30 µM | > 30 µM | > 30 µM | > 30 µM | > 30 µM | >50.0 µM | >50.0 µM | > 30 µM | > 30 µM | > 30 µM | > 30 µM | > 30 µM | > 30 µM | > 30 µM | >50.0 µM | > 30 µM | >50.0 µM | >50.0 µM | >50.0 µM | chemical stability (products formed) [17]: compounds 4 and 5 were also detected from the product; MIC, E. tarda (Edwardsiella tarda): >50.0 µM; MIC, M. phlei (Mycobacterium phlei): >50.0 µM; IC50 (in vitro [15]): > 30 µM; IC50 (in vitro [16]): > 30 µM |
| CC(C)[C@H]1C(=O)N(C)[C@@H](C)C(=O)NCCC[C@H](NC(=O)/C=C/C=C/C(=O)O)C(=O)N1C [Compound 1] | > 30 µM | > 30 µM | > 30 µM | > 30 µM | > 30 µM | > 30 µM | 12.5 µM (≈ 5.46 µg/mL) | 25.0 µM (≈ 10.9 µg/mL) | > 30 µM | > 30 µM | > 30 µM | > 30 µM | > 30 µM | > 30 µM | > 30 µM | 3.13 µM (≈ 1.37 µg/mL) | > 30 µM | 3.13 µM (≈ 1.37 µg/mL) | 3.13 µM (≈ 1.37 µg/mL) | 6.25 µM (≈ 2.73 µg/mL) | MIC, E. tarda (Edwardsiella tarda): 1.56 µM (≈ 0.681 µg/mL); MIC, M. phlei (Mycobacterium phlei): 3.13 µM (≈ 1.37 µg/mL); IC50 (in vitro [15]): > 30 µM; IC50 (in vitro [16]): > 30 µM |
| CO[C@H](C)[C@@H](/C=C/C=C/C(=O)N(C)[C@H]1CCCN(C)C(=O)[C@H](C)N(C)C(=O)[C@H](C(C)C)N(C)C1=O)OC [Compound 3] | > 30 µM | > 30 µM | > 30 µM | > 30 µM | > 30 µM | > 30 µM | >50.0 µM | >50.0 µM | > 30 µM | > 30 µM | > 30 µM | > 30 µM | > 30 µM | > 30 µM | > 30 µM | >50.0 µM | > 30 µM | 25.0 µM (≈ 13.1 µg/mL) | >50.0 µM | >50.0 µM | MIC, E. tarda (Edwardsiella tarda): 25.0 µM (≈ 13.1 µg/mL); MIC, M. phlei (Mycobacterium phlei): >50.0 µM; IC50 (in vitro [15]): > 30 µM; IC50 (in vitro [16]): > 30 µM |
| COC(=O)/C=C/C=C/C(=O)N[C@H]1CCCNC(=O)[C@H](C)N(C)C(=O)[C@H](C(C)C)N(C)C1=O [Compound 2, (2′E,4′E)-cyclo-[(NMe-L-Ala)-(NMe-L-Val)-(Nα-6-methoxy-6-oxohexa-2,4-dienoyl-L-Orn)]] | > 30 µM | > 30 µM | > 30 µM | > 30 µM | > 30 µM | > 30 µM | 25.0 µM (≈ 11.3 µg/mL) | 25.0 µM (≈ 11.3 µg/mL) | > 30 µM | > 30 µM | > 30 µM | > 30 µM | > 30 µM | > 30 µM | > 30 µM | 6.25 µM (≈ 2.82 µg/mL) | > 30 µM | 6.25 µM (≈ 2.82 µg/mL) | 6.25 µM (≈ 2.82 µg/mL) | 12.5 µM (≈ 5.63 µg/mL) | MIC, E. tarda (Edwardsiella tarda): 1.56 µM (≈ 0.703 µg/mL); MIC, M. phlei (Mycobacterium phlei): 12.5 µM (≈ 5.63 µg/mL); IC50 (in vitro [15]): > 30 µM; IC50 (in vitro [16]): > 30 µM |
| CO[C@H](/C=C/C=C/C(=O)N[C@H]1CCCNC(=O)[C@H](C)N(C)C(=O)[C@H](C(C)C)N(C)C1=O)[C@@H](C)O [Compound 4, (2′E,4′E)-cyclo-[(NMe-L-Ala)-(NMe-L-Val)-(Nα-(6R,7R)-7-hydroxy-6-methoxyocta-2,4-dienoyl-L-Orn)]] | > 30 µM | > 30 µM | > 30 µM | > 30 µM | > 30 µM | > 30 µM | >50.0 µM | >50.0 µM | > 30 µM | > 30 µM | > 30 µM | > 30 µM | > 30 µM | > 30 µM | > 30 µM | 25.0 µM (≈ 12 µg/mL) | > 30 µM | 25.0 µM (≈ 12 µg/mL) | 25.0 µM (≈ 12 µg/mL) | >50.0 µM | MIC, E. tarda (Edwardsiella tarda): 25.0 µM (≈ 12 µg/mL); MIC, M. phlei (Mycobacterium phlei): >50.0 µM; IC50 (in vitro [15]): > 30 µM; IC50 (in vitro [16]): > 30 µM |
| O=C(O)c1cn(C2CC2)c2cc(N3CCNCC3)c(F)cc2c1=O [CIP, Ciprofloxacin, reference compound] | – | – | – | – | – | – | – | – | – | – | – | – | – | – | – | – | – | – | – | – | MIC (Proteus species; read-out: MIC, P. species): 0.195 µM (≈ 0.0646 µg/mL); MIC (Bacillus cereus; Bacillus cereus, read-out: MIC, B. cereus): 0.78 µM (≈ 0.258 µg/mL); MIC (Bacillus subtilis; Bacillus subtilis, read-out: MIC, B. subtilis): 0.195 µM (≈ 0.0646 µg/mL); MIC (Edwardsiella tarda; Edwardsiella tarda, read-out: MIC, E. tarda): 0.0125 µM (≈ 0.00414 µg/mL); MIC (Mycobacterium phlei; Mycolicibacterium phlei, read-out: MIC, M. phlei): 0.78 µM (≈ 0.258 µg/mL) |

Reference: paper PMC7694092, “Antibacterial Cyclic Tripeptides from Antarctica-Sponge-Derived Fungus Aspergillus insulicola HDN151418” (Marine Drugs, 2020)
